Source: patent US20050101595A1, “N-containing cycloalkyl-substituted amino-thiazole derivatives and pharmaceutical compositions for inhibiting cell proliferation and methods for their use” (PFIZER INC., priority 2003, published 2005)

How the values were obtained:
[1] = test system: HCT-116 cell line; experiment: Inhibition of cell growth, tetrazolium salt (MTT) assay; format: cell-based; settings: Homo sapiens, HCT-116, HCT-116 cells; MTT; compound at 0.175 uM
Method in brief: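 First, cells were seeded in McCoy's 5A medium and held 4 h. Next, inhibitor concentrations in 0.5% (v/v) DMSO were applied for three to five days at 37° C, 5% CO2. Finally, after 4 h with 0.2 mg/mL MTT and medium removal, solubilized formazan was measured at 540 nm.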

[2] = molecular target: CDK2/Cyclin A (Homo sapiens, UniProt P24941); experiment: Inhibition of CDK2/Cyclin A Retinoblastoma Kinase Activity; format: biochemical; settings: read-out: % inhibition of CDK2 (@ 0.05 μM), compound at 0.05 μM
Method in brief: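 Percent inhibition is calculated against DMSO-only wells after subtracting no-enzyme background. The enzyme is human CDK2 complexed with proteolyzed cyclin A, used at 10 nM or 19 nM on an Rb fragment with 25 μM [32/33P]ATP, at pH 7.4 and 30° C.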

| Compound | inhibition at 0.175 µM [1] [%] | inhibition at 0.05 µM [2] [%] |
| --- | --- | --- |
| CC(CN(C)C)NCCCS(=O)(=O)N1CCC(Nc2nc(N)c(C(=O)c3c(F)cccc3F)s2)CC1 (centres unmarked) [Example V126] | 6 | 84 |
| CSCCCNCCCS(=O)(=O)N1CCC(Nc2nc(N)c(C(=O)c3c(F)cccc3F)s2)CC1 [Example V127] | 13 | 87 |
| CSCCNCCCS(=O)(=O)N1CCC(Nc2nc(N)c(C(=O)c3c(F)cccc3F)s2)CC1 [Example V128] | 25 | 87 |
| CCSCCNCCCS(=O)(=O)N1CCC(Nc2nc(N)c(C(=O)c3c(F)cccc3F)s2)CC1 [Example V129] | 49 | 88 |
| CCN(CCCS(=O)(=O)N1CCC(Nc2nc(N)c(C(=O)c3c(F)cccc3F)s2)CC1)CCOC [Example V130] | 36 | 75 |
| CC(C)OCCNCCCS(=O)(=O)N1CCC(Nc2nc(N)c(C(=O)c3c(F)cccc3F)s2)CC1 [Example V131] | 5 | 82 |
| CCOC(=O)CCNCCCS(=O)(=O)N1CCC(Nc2nc(N)c(C(=O)c3c(F)cccc3F)s2)CC1 [Example V132] | 20 | 80 |
| Nc1nc(NC2CCN(S(=O)(=O)CCCN3CCC(CO)CC3)CC2)sc1C(=O)c1c(F)cccc1F [Example V133] | 0 | 71 |
| Nc1nc(NC2CCN(S(=O)(=O)CCCN3CCC(CCO)CC3)CC2)sc1C(=O)c1c(F)cccc1F [Example V134] | 8 | 80 |
| C=CCN(C)CCCS(=O)(=O)N1CCC(Nc2nc(N)c(C(=O)c3c(F)cccc3F)s2)CC1 [Example V135] | 82 | 78 |
| COC(=O)CN(C)CCCS(=O)(=O)N1CCC(Nc2nc(N)c(C(=O)c3c(F)cccc3F)s2)CC1 [Example V136] | 9 | 76 |
| C=C(C)CN(C)CCCS(=O)(=O)N1CCC(Nc2nc(N)c(C(=O)c3c(F)cccc3F)s2)CC1 [Example V137] | 78 | 76 |
| CN(CCCS(=O)(=O)N1CCC(Nc2nc(N)c(C(=O)c3c(F)cccc3F)s2)CC1)CC(N)=O [Example V138] | 0 | 76 |
| COC(=O)[C@@H]1CCCN1CCCS(=O)(=O)N1CCC(Nc2nc(N)c(C(=O)c3c(F)cccc3F)s2)CC1 [Example V139] | 0 | 79 |
| Nc1nc(NC2CCN(S(=O)(=O)CCCNc3cc(O)c4ccccc4n3)CC2)sc1C(=O)c1c(F)cccc1F [Example V140] | 0 | 93 |
| COC(=O)CCCNCCCS(=O)(=O)N1CCC(Nc2nc(N)c(C(=O)c3c(F)cccc3F)s2)CC1 [Example V141] | 22 | 82 |
| Nc1nc(NC2CCN(S(=O)(=O)CCCNc3ccc4cccc(O)c4n3)CC2)sc1C(=O)c1c(F)cccc1F [Example V142] | 0 | 80 |
| Nc1nc(NC2CCN(S(=O)(=O)CCCN3C[C@@H]4C[C@H]3CO4)CC2)sc1C(=O)c1c(F)cccc1F [Example V143] | 34 | 90 |
| Nc1nc(NC2CCN(S(=O)(=O)CCCNCC3(O)CCCCC3)CC2)sc1C(=O)c1c(F)cccc1F [Example V144] | 0 | 87 |
| Nc1nc(NC2CCN(S(=O)(=O)CCCNc3nccc4cccnc34)CC2)sc1C(=O)c1c(F)cccc1F [Example V145] | 0 | 83 |
| Nc1nc(NC2CCN(S(=O)(=O)CCCNCCCc3c[nH]cn3)CC2)sc1C(=O)c1c(F)cccc1F [Example V146] | 13 | 82 |
| CN(C)CCCS(=O)(=O)N1CCC(Nc2nc(N)c(C(=O)c3c(F)cccc3F)s2)CC1 [Example V147] | 23 | 78 |
| CN(CCO)CCCS(=O)(=O)N1CCC(Nc2nc(N)c(C(=O)c3c(F)cccc3F)s2)CC1 [Example V148] | 2 | 83 |

| Compound | inhibition at 0.175 µM [1] [%] | inhibition at 0.05 µM [2] [%] |
| --- | --- | --- |
| Nc1cccc(CNCCCS(=O)(=O)N2CCC(Nc3nc(N)c(C(=O)c4c(F)cccc4F)s3)CC2)c1 [Example V149] | 0 | 92 |
| Nc1nc(NC2CCN(S(=O)(=O)CCCNCCc3ncn[nH]3)CC2)sc1C(=O)c1c(F)cccc1F [Example V150] | 18 | 87 |
| Nc1ncccc1CNCCCS(=O)(=O)N1CCC(Nc2nc(N)c(C(=O)c3c(F)cccc3F)s2)CC1 [Example V151] | 0 | 79 |
| Nc1nc(NC2CCN(S(=O)(=O)CCCN3CCN4CCCC4C3)CC2)sc1C(=O)c1c(F)cccc1F (centres unmarked) [Example V152] | 0 | 78 |
| Nc1nc(NC2CCN(S(=O)(=O)CCCNC3CCOCC3)CC2)sc1C(=O)c1c(F)cccc1F [Example V153] | 0 | 84 |
| CN(C)CCCCNCCCS(=O)(=O)N1CCC(Nc2nc(N)c(C(=O)c3c(F)cccc3F)s2)CC1 [Example V154] | 15 | 82 |
| Nc1nc(NC2CCN(S(=O)(=O)CCCN3Cc4ccccc4C3)CC2)sc1C(=O)c1c(F)cccc1F [Example V155] | 11 | 87 |
| Nc1nc(NC2CCN(S(=O)(=O)CCCN3CCNC(=O)CC3)CC2)sc1C(=O)c1c(F)cccc1F [Example V156] | 0 | 82 |
| Nc1nc(NC2CCN(S(=O)(=O)CCCN[C@H]3CCC(=O)NC3)CC2)sc1C(=O)c1c(F)cccc1F [Example V157] | 46 | 83 |
| Nc1nc(NC2CCN(S(=O)(=O)CCCNC3CCCCCCC3)CC2)sc1Cc1c(F)cccc1F [Example V158] | 23 | 90 |
| Nc1nc(NC2CCN(S(=O)(=O)CCCNC3CCCCCC3)CC2)sc1C(=O)c1c(F)cccc1F [Example V159] | 8 | 88 |
| COC(=O)C1CCN(CCCS(=O)(=O)N2CCC(Nc3nc(N)c(C(=O)c4c(F)cccc4F)s3)CC2)C1 (centres unmarked) [Example V160] | 0 | 84 |
| Nc1nc(NC2CCN(S(=O)(=O)CCCNC3CCSCC3)CC2)sc1C(=O)c1c(F)cccc1F [Example V161] | 2 | 88 |
| Nc1nc(NC2CCN(S(=O)(=O)CCCNC3CCCNC3=O)CC2)sc1C(=O)c1c(F)cccc1F (centres unmarked) [Example V162] | 9 | 83 |
| Nc1nc(NC2CCN(S(=O)(=O)CCCNCC3COCCO3)CC2)sc1C(=O)c1c(F)cccc1F (centres unmarked) [Example V163] | 2 | 83 |
| Nc1nc(NC2CCN(S(=O)(=O)CCCNCCC3CCOCC3)CC2)sc1C(=O)c1c(F)cccc1F [Example V164] | 0 | 85 |
| Nc1nc(NC2CCN(S(=O)(=O)CCCNCc3ncccc3O)CC2)sc1C(=O)c1c(F)cccc1F [Example V165] | 6 | 93 |
| Nc1nc(NC2CCN(S(=O)(=O)CCCN3CCNC(=O)C3)CC2)sc1C(=O)c1c(F)cccc1F [Example V166] | 3 | 72 |
| Nc1nc(NC2CCN(S(=O)(=O)CCCN3CCCC(F)(F)C3)CC2)sc1C(=O)c1c(F)cccc1F [Example V167] | 0 | 83 |
| Nc1nc(NC2CCN(S(=O)(=O)CCCN3CCC(F)(F)CC3)CC2)sc1C(=O)c1c(F)cccc1F [Example V168] | 37 | 83 |
| Nc1nc(NC2CCN(S(=O)(=O)CCCNCc3ccc[nH]c3=O)CC2)sc1C(=O)c1c(F)cccc1F [Example V169] | 25 | 76 |
| Nc1nc(NC2CCN(S(=O)(=O)CCCN[C@H]3CC[C@@H](CO)CC3)CC2)sc1C(=O)c1c(F)cccc1F [Example V170] | 14 | 82 |
| COC1CCN(CCCS(=O)(=O)N2CCC(Nc3nc(N)c(C(=O)c4c(F)cccc4F)s3)CC2)CC1 [Example V171] | 65 | 81 |
